Source: US20110040086A1, “Novel Beta-Lactam Antibiotics, Methods for Their Production, and Their Use” (DRITTE PATENTPORTFOLIO BETEILIGUNGSGESELLSCHAFT MB, priority 2007, published 2011)

Tests used:
[1] = test system: Escherichia coli SBUG 1135; assay: agar diffusion test (Test System 1, antimicrobial effect); format: cell-based
Experimental: (§1) Test System 1 (Antimicrobial Effect)
(§2) The test germs Escherichia coli SBUG 1135 and Bacillus megaterium SBUG 1152 are drawn overnight (17 hours at 37° C.) in 5 ml nutrient medium II. The incubation is performed in a shaking incubator (INFORS AG CH 4103, Bottmingen, Switzerland) at a shaking frequency of 180 rpm.
(§3) After 17 h incubation time, Escherichia coli has reached a cell density of ca. 2.4×10^10 cells/ml and Bacillus megaterium a cell density of ca. 2.1×10^8 cells/ml.
(§4) The seeding of bacteria in agar is selected so that, dense, but not confluent individual colonies develop after the incubation.
Escherichia coli: the ÜN is diluted 1:100 with physiological saline solution, of which 0.1 ml is converted into 10 ml nutrient agar. That corresponds to a cell count of 10^6.
(§5) The inoculated nutrient agar is set in sterile Petri dishes and left standing for a few minutes for drying.
(§6) The test substances are deposited in stepped quantities (10 μg, 50 μg, 100 μg) onto active ingredient carriers (sensi-discs). For this purpose, the test substances are dissolved in methanol or A. dest. according to their solubility. Each inoculated plate is fitted with 3 test sheets.
(§7) After a 20-hour incubation time at 37° C., the zones of inhibition around the individual test sheets could be measured. The diameter of the zone of inhibition is specified in mm.

[2] = test system: Staphylococcus aureus 315; assay: agar diffusion test (Test System II, multi-resistant germs); format: cell-based; design: key: r = resistant (no detectable zone of inhibition)
Experimental: as §6
(§8) Test System II (Effect Against Multi-Resistant Germs)
(§9) For this purpose, bacteria is cultivated on Müller-Hinton-Agar II plates.
(§10) With 1-1.5 ml physiological saline solution, a bacteria suspension of McFarland 0.5 (corresponds to a bacteria density of 150×10^6 germs) is produced. Then, with a sterile glass rod, a small drop of bacteria suspension is placed on the Müller-Hinton-Agar plate and coated in three layers (vertical, horizontal, and transverse). Thereafter, the sensi-discs with the novel semi-synthetic test substances are placed on top. The fitted plates are incubated for 18-20 hours at 37° C. After incubation, the diameters of the zones of inhibition are read as a measure for the antimicrobial activity of the novel semi-synthetic test substances.

[3] = test system: Enterococcus faecalis 769; assay: as above; format: cell-based; design: key: r = resistant (no detectable zone of inhibition)
Experimental: as §6, §8, §9, §10

S. aureus 526 = assay: as above; format: cell-based, Staphylococcus aureus; design: key: r = resistant (no detectable zone of inhibition)
Experimental: as §6, §8, §9, §10

S. aureus 34289 = assay: as above; format: cell-based, Staphylococcus aureus; design: key: r = resistant (no detectable zone of inhibition)
Experimental: as §6, §8, §9, §10

S. aureus 520 = assay: as above; format: cell-based, Staphylococcus aureus; design: key: r = resistant (no detectable zone of inhibition)
Experimental: as §6, §8, §9, §10

S. aureus 36881 = assay: as above; format: cell-based, Staphylococcus aureus; design: key: r = resistant (no detectable zone of inhibition)
Experimental: as §6, §8, §9, §10

[4] = test system: S. aureus North Germany strain; assay: as above; format: cell-based, Staphylococcus aureus; design: key: r = resistant (no detectable zone of inhibition)
Experimental: as §6, §8, §9, §10

S. aureus 39105 = assay: as above; format: cell-based, Staphylococcus aureus; design: key: r = resistant (no detectable zone of inhibition)
Experimental: as §6, §8, §9, §10

S. aureus 33490 = assay: as above; format: cell-based, Staphylococcus aureus; design: key: r = resistant (no detectable zone of inhibition)
Experimental: as §6, §8, §9, §10

E. faecalis 945 = assay: as above; format: cell-based, Enterococcus faecalis; design: key: r = resistant (no detectable zone of inhibition)
Experimental: as §6, §8, §9, §10

[5] = logP value by HPLC according to Donovan et al.; conditions: HPLC with methanol/0.1% phosphoric acid gradient, pH 2
Experimental: • Operating temperature 18-24° C. • Flow 1.5 mL/min • Linear gradient (methanol/0.1% phosphoric acid pH 2) from 10% to 100% methanol in 9.4 min, equilibrium time between 2 runs 6 min
ca. 0.5 mg of analyte is added to 0.5 ml of a standard solution (440 mg methyl phenyl sulfonate and 380 μl toluene in 150 mL methanol). 2 μl of this sample solution is injected.
Because the distribution coefficients of the two standards running in each test are known, the distribution coefficient of the analytes can be determined from the relationships of the analyte/standard retention times.

[6] = test system: Bacillus megaterium SBUG 1152; assay: agar diffusion test (Test System 1, antimicrobial effect); format: cell-based
Experimental: as §1, §2, §3, §4
Bacillus megaterium: 0.1 ml of non-diluted overnight culture (ÜN) in 10 ml nutrient agar corresponds to a cell count of 10^6.
as §5, §6, §7

S. aureus 38418 = assay: agar diffusion test (Test System II, multi-resistant germs); format: cell-based, Staphylococcus aureus
Experimental: as §6, §8, §9, §10

S. aureus ATCC 6538 = assay: as above; format: cell-based, Staphylococcus aureus
Experimental: as §6, §8, §9, §10

S. epidermidis 125 = assay: as above; format: cell-based, Staphylococcus epidermidis
Experimental: as §6, §8, §9, §10

S. epidermidis 563 = assay: as above; format: cell-based, Staphylococcus epidermidis
Experimental: as §6, §8, §9, §10

S. epidermidis 1068 = assay: as above; format: cell-based, Staphylococcus epidermidis
Experimental: as §6, §8, §9, §10

S. epidermidis 1071 = assay: as above; format: cell-based, Staphylococcus epidermidis
Experimental: as §6, §8, §9, §10

S. epidermidis 847 = assay: as above; format: cell-based, Staphylococcus epidermidis
Experimental: as §6, §8, §9, §10

B. subtilis AWD 166 = assay: agar diffusion test (antimicrobial effect); format: cell-based, Bacillus subtilis
Experimental: as §4, §5, §6, §7

In the case of `CC1=C(C(=O)O)N2C(=O)[C@@H](NC(=O)[C@H](N)c3ccc(O)cc3)[C@H]2SC1` [2a, Cefadroxil, reference compound], the “Diameter of zone of inhibition” value ([1]; Quantity n 0.019) is reported as 18 mm, the “Diameter of zone of inhibition” value ([1]; Quantity n 0.1) is reported as 22 mm and the “Diameter of zone of inhibition” value ([1]; Quantity n 0.19) is reported as 26 mm. The “Diameter of zone of inhibition” value ([2]; Quantity n 0.019) was “r”, the “Diameter of zone of inhibition” value ([2]; Quantity n 0.1) was “r” and the “Diameter of zone of inhibition” value ([2]; Quantity n 0.19) was 8 mm. The “Diameter of zone of inhibition” value ([3]; Quantity n 0.019) was “r”, the “Diameter of zone of inhibition” value ([3]; Quantity n 0.1) was 10 mm and the “Diameter of zone of inhibition” value ([3]; Quantity n 0.19) was 14 mm. The “Diameter of zone of inhibition” value (S. aureus 526; Quantity n 0.019) was “r”, the “Diameter of zone of inhibition” value (S. aureus 526; Quantity n 0.1) was “r” and the “Diameter of zone of inhibition” value (S. aureus 526; Quantity n 0.19) was “r”. The “Diameter of zone of inhibition” value (S. aureus 34289; Quantity n [mol] 0.019) was “r”, the “Diameter of zone of inhibition” value (S. aureus 34289; Quantity n [mol] 0.1) was “r” and the “Diameter of zone of inhibition” value (S. aureus 34289; Quantity n [mol] 0.19) was “r”. For the same compound, the “Diameter of zone of inhibition” value (S. aureus 520; Quantity n [mol] 0.019) was “r”, the “Diameter of zone of inhibition” value (S. aureus 520; Quantity n [mol] 0.1) was “r” and the “Diameter of zone of inhibition” value (S. aureus 520; Quantity n [mol] 0.19) was 8 mm. The “Diameter of zone of inhibition” value (S. aureus 36881; Quantity n 0.019) was “r”, the “Diameter of zone of inhibition” value (S. aureus 36881; Quantity n 0.1) was 14 mm and the “Diameter of zone of inhibition” value (S. aureus 36881; Quantity n 0.19) was 18 mm. For the same compound, the “Diameter of zone of inhibition” value ([4]; Quantity n 0.019) was “r”, the “Diameter of zone of inhibition” value ([4]; Quantity n 0.1) was “r” and the “Diameter of zone of inhibition” value ([4]; Quantity n 0.19) was 10 mm. For the same compound, the “Diameter of zone of inhibition” value (S. aureus 39105; Quantity n 0.019) was 16 mm, the “Diameter of zone of inhibition” value (S. aureus 39105; Quantity n 0.1) was 24 mm and the “Diameter of zone of inhibition” value (S. aureus 39105; Quantity n 0.19) was 26 mm. The “Diameter of zone of inhibition” value (S. aureus 33490; Quantity n [μmol] 0.019) was 16 mm, the “Diameter of zone of inhibition” value (S. aureus 33490; Quantity n [μmol] 0.1) was 24 mm and the “Diameter of zone of inhibition” value (S. aureus 33490; Quantity n [μmol] 0.19) was 28 mm. The “Diameter of zone of inhibition” value (E. faecalis 945; Quantity n 0.019) was “r”, the “Diameter of zone of inhibition” value (E. faecalis 945; Quantity n 0.1) was “r” and the “Diameter of zone of inhibition” value (E. faecalis 945; Quantity n 0.19) was “r”. For the same compound, the chromatographic logP [5] was -3.5, the “Diameter of zone of inhibition” value ([6]; Quantity n 0.019) was 36^1 mm and the “Diameter of zone of inhibition” value ([6]; Quantity n 0.1) was 38 mm. For the same compound, the “Diameter of zone of inhibition” value ([6]; Quantity n 0.19) was 40 mm, the “Diameter of zone of inhibition” value (S. aureus 38418; Quantity n [mol] 0.019) was 30 mm and the “Diameter of zone of inhibition” value (S. aureus 38418; Quantity n [mol] 0.1) was 34 mm. The “Diameter of zone of inhibition” value (S. aureus 38418; Quantity n [mol] 0.19) was 38 mm, the “Diameter of zone of inhibition” value (S. aureus ATCC 6538; Quantity n 0.019) was 32 mm and the “Diameter of zone of inhibition” value (S. aureus ATCC 6538; Quantity n 0.1) was 38 mm. The “Diameter of zone of inhibition” value (S. aureus ATCC 6538; Quantity n 0.19) was 40 mm, the “Diameter of zone of inhibition” value (S. epidermidis 125; Quantity n 0.019) was 26 mm and the “Diameter of zone of inhibition” value (S. epidermidis 125; Quantity n 0.1) was 36 mm. For the same compound, the “Diameter of zone of inhibition” value (S. epidermidis 125; Quantity n 0.19) was 40 mm, the “Diameter of zone of inhibition” value (S. epidermidis 563; Quantity n 0.019) was 24 mm and the “Diameter of zone of inhibition” value (S. epidermidis 563; Quantity n 0.1) was 28 mm. For the same compound, the “Diameter of zone of inhibition” value (S. epidermidis 563; Quantity n 0.19) was 32 mm, the “Diameter of zone of inhibition” value (S. epidermidis 1068; Quantity n 0.019) was 20 mm and the “Diameter of zone of inhibition” value (S. epidermidis 1068; Quantity n 0.1) was 24 mm. For the same compound, the “Diameter of zone of inhibition” value (S. epidermidis 1068; Quantity n 0.19) was 26 mm, the “Diameter of zone of inhibition” value (S. epidermidis 1071; Quantity n 0.019) was 22 mm and the “Diameter of zone of inhibition” value (S. epidermidis 1071; Quantity n 0.1) was 28 mm. The “Diameter of zone of inhibition” value (S. epidermidis 1071; Quantity n 0.19) was 30 mm, the “Diameter of zone of inhibition” value (S. epidermidis 847; Quantity n [mol] 0.019) was 12 mm and the “Diameter of zone of inhibition” value (S. epidermidis 847; Quantity n [mol] 0.1) was 26 mm. For the same compound, the “Diameter of zone of inhibition” value (S. epidermidis 847; Quantity n [mol] 0.19) was 30 mm, the “Diameter of zone of inhibition” value (B. subtilis AWD 166; Quantity n 0.019) was 36 mm and the “Diameter of zone of inhibition” value (B. subtilis AWD 166; Quantity n 0.1) was 38 mm. For the same compound, the “Diameter of zone of inhibition” value (B. subtilis AWD 166; Quantity n 0.19) was 40 mm.
`NC(=O)c1cc(O)ccc1O` [2,5-dihydroxybenzamide] showed a chromatographic logP [5] of -0.4.
Compound `CCOC(=O)c1cc(O)ccc1O` [2,5-dihydroxybenzoic acid ethylester] has a chromatographic logP [5] of 2.65.
